Measurements from patent US9663565B2, “Insulinotropic peptide derivative with modified N-terminal charge” (HANMI PHARM. CO., LTD., priority 2013, dated 2017).

Assays:
[1] = tested on: GLP-1 receptor (hGLP-1R/GST); assay: Binding activity with the GLP-1 receptor by surface plasmon resonance (BIACORE 3000), 1:1 Langmuir fitting; parameters: species or system human; conditions: SPR, hGLP-1R/GST immobilized to CM5 chip
Text: The expressed hGLP-1R/GST was immobilized to a CM5 chip by amine coupling. […].

[2] = N-terminal charge at pH 7.4; format: physicochemical

Sequence of GLP-1 receptor (hGLP-1R/GST) (P43220 24-139 limits assumed): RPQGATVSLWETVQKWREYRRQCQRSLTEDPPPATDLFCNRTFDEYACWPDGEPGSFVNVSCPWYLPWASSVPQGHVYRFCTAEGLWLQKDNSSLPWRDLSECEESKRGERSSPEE

Substance | Ka [1] | Kd [1] [nM] | kd [1] | N-terminal charge at pH 7.4 [2]
beta-hydroxy imidazopropionyl-exendin-4 [HY-exendin-4] | 0.90 ± 0.07 1/Ms, ×10^5 | 42.7 ± 4.1 | 38.3 ± 1.92 1/s, ×10^4 | Neutral
desamino-histidyl-exendin-4 [DA-exendin-4] | 1.13 ± 0.08 1/Ms, ×10^5 | 32.2 ± 1.89 | 36.5 ± 1.40 1/s, ×10^4 | Neutral
DA-exendin-4-propyl-amide | 1.04 ± 0.11 1/Ms, ×10^5 | 32.6 ± 4.17 | 33.5 ± 1.40 1/s, ×10^4 | Neutral
imidazoacetyl-exendin-4 [CA-exendin-4] | 1.20 ± 0.11 1/Ms, ×10^5 | 26.3 ± 2.08 | 31.5 ± 0.56 1/s, ×10^4 | Neutral
